Values quoted from earlier work, collected in US8974795B2, “Controlled release formulation based on hematin anhydride crystals for the induction of an innate immune reaction” (priority 2010, dated 2015).

Conditions: not given

SMILES | pKa
C=CC1=C(C)c2cc3[n-]c(cc4[n-]c(cc5nc(cc1n2)C(C)=C5C=C)c(C)c4CCC(=O)O)c(CCC(=O)O)c3C.[Fe+2] [heme] | about 4.5

Same assay, conditions: Table 1, medium strong organic acids

SMILES | pKa
O=C(O)C(O)c1ccccc1 (racemic) [DL-Mandelic acid] | 3.85
O=C(O)Cc1ccccc1Cl [2-Chlorophenylacetic acid] | 4.07
O=C(O)CCc1ccccc1Cl [3-(2-Chlorophenyl)propanoic acid] | 4.58
O=C(O)CCc1cccc(Cl)c1 [3-(3-Chlorophenyl)propanoic acid] | 4.59
O=C(O)CCc1ccc(Cl)cc1 [3-(4-Chlorophenyl)propanoic acid] | 4.61
CC(Cl)CC(=O)O (stereo not drawn) [3-Chlorobutanoic acid] | 4.05
O=C(O)Cc1cccc(Cl)c1 [3-Chlorophenylacetic acid] | 4.14
O=C(O)Cc1ccc(Cl)cc1 [4-Chlorophenylacetic acid] | 4.19
O=C(O)C(c1ccccc1)c1ccccc1 [Diphenylacetic acid] | 3.94
Cc1cc(C)cc(C(=O)O)c1 [Mesitylenic acid] | 4.32
CC(C(=O)O)c1ccccc1 (stereo not drawn) [α-Phenylpropanoic acid] | 4.64
